ChEMBL document CHEMBL4414613, “Antibacterial 5α-Spirostane Saponins from the Fruit of Cordyline manners-suttoniae” (J Nat Prod, 2019)
≈ marks a conversion by molar mass, not a printed value. Calls of active or inactive are those of the source. No cut-off for these calls is given here.

Legend:
Acinetobacter baumannii [1] = assay: Bactericidal activity against Acinetobacter baumannii ATCC 17978 at 90 uM incubated for 24 hrs by microdilution assay; type: functional, organism-based
[2] = system: Enterobacter cloacae subsp. cloacae; assay: Antibacterial activity against Enterobacter cloacae ATCC 13047 at 90 uM incubated for 24 hrs by microdilution assay; type: functional
Enterococcus faecium [3] = assay: Bactericidal activity against Enterococcus faecium C15 at 90 uM incubated for 24 hrs by microdilution assay; type: functional, organism-based
Staphylococcus aureus [4] = assay: Bactericidal activity against Staphylococcus aureus ATCC 25923 at 90 uM incubated for 24 hrs by microdilution assay; type: functional, organism-based
Staphylococcus aureus [5] = assay: Antibacterial activity against Staphylococcus aureus ATCC 25923 at 90 uM incubated for 24 hrs by microdilution assay; type: functional, organism-based
Pseudomonas aeruginosa [6] = assay: Antibacterial activity against Pseudomonas aeruginosa ATCC 10145 at 90 uM incubated for 24 hrs by microdilution assay; type: functional, organism-based
Staphylococcus aureus [7] = assay: Bactericidal activity against Staphylococcus aureus ATCC 29247 at 90 uM incubated for 24 hrs by microdilution assay; type: functional, organism-based
Acinetobacter baumannii [8] = assay: Antibacterial activity against Acinetobacter baumannii ATCC 17978 at 90 uM incubated for 24 hrs by microdilution assay; type: functional, organism-based
Klebsiella pneumoniae [9] = assay: Bactericidal activity against Klebsiella pneumoniae ATCC 12657 at 90 uM incubated for 24 hrs by microdilution assay; type: functional, organism-based
Klebsiella pneumoniae [10] = assay: Bactericidal activity against Klebsiella pneumoniae ATCC 13883 at 90 uM incubated for 24 hrs by microdilution assay; type: functional, organism-based
Staphylococcus aureus [11] = assay: Antibacterial activity against Staphylococcus aureus ATCC 29247 at 90 uM incubated for 24 hrs by microdilution assay; type: functional, organism-based
Acinetobacter baumannii [12] = assay: Antibacterial activity against Acinetobacter baumannii ATCC 19606 at 90 uM incubated for 24 hrs by microdilution assay; type: functional, organism-based; conditions: ATCC 19606 = CIP 70.34 = JCM 6841
Klebsiella aerogenes [13] = assay: Antibacterial activity against Enterobacter aerogenes ATCC 13048 at 90 uM incubated for 24 hrs by microdilution assay; type: functional
Pseudomonas aeruginosa [14] = assay: Bactericidal activity against Pseudomonas aeruginosa ATCC 10145 at 90 uM incubated for 24 hrs by microdilution assay; type: functional, organism-based
Klebsiella pneumoniae [15] = assay: Antibacterial activity against Klebsiella pneumoniae ATCC 12657 at 90 uM incubated for 24 hrs by microdilution assay; type: functional, organism-based
Enterococcus faecium [16] = assay: Antibacterial activity against Enterococcus faecium ATCC 35667 at 90 uM incubated for 24 hrs by microdilution assay; type: functional, organism-based
NHDF = assay: Cytotoxicity against human HDF cells assessed as reduction in cell viability incubated for 7 days by CellTiter 96 aqueous one solution assay; type: functional, cell-based; conditions: 168 h
Enterococcus faecium [17] = assay: Antibacterial activity against Enterococcus faecium C15 incubated for 24 hrs by microdilution assay; type: functional
[18] = system: Enterobacter cloacae subsp. cloacae; assay: Bactericidal activity against Enterobacter cloacae ATCC 13047 at 90 uM incubated for 24 hrs by microdilution assay; type: functional
HaCaT = assay: Cytotoxicity against human HaCaT cells assessed as reduction in cell viability incubated for 4 days by CellTiter 96 aqueous one solution assay; type: cell-based; conditions: 96 h
Pseudomonas aeruginosa [19] = assay: Antibacterial activity against Pseudomonas aeruginosa ATCC 49189 at 90 uM incubated for 24 hrs by microdilution assay; type: functional, organism-based
[20] = Selectivity ratio of IC50 for human HaCaT cells to IC50 for human HDF cells by CellTiter 96 aqueous one solution assay
Klebsiella pneumoniae [21] = assay: Antibacterial activity against Klebsiella pneumoniae ATCC 13883 at 90 uM incubated for 24 hrs by microdilution assay; type: functional, organism-based
Pseudomonas aeruginosa [22] = assay: Bactericidal activity against Pseudomonas aeruginosa ATCC 49189 at 90 uM incubated for 24 hrs by microdilution assay; type: functional, organism-based
Acinetobacter baumannii [23] = assay: Bactericidal activity against Acinetobacter baumannii ATCC 19606 at 90 uM incubated for 24 hrs by microdilution assay; type: functional, organism-based; conditions: ATCC 19606 = CIP 70.34 = JCM 6841
Klebsiella aerogenes [24] = assay: Bactericidal activity against Enterobacter aerogenes ATCC 13048 at 90 uM incubated for 24 hrs by microdilution assay; type: functional
Enterococcus faecium [25] = assay: Bactericidal activity against Enterococcus faecium ATCC 35667 at 90 uM incubated for 24 hrs by microdilution assay; type: functional, organism-based
Enterococcus faecium [26] = assay: Antibacterial activity against Enterococcus faecium ATCC 35667 incubated for 24 hrs by microdilution assay; type: functional

Row | MIC75 (Enterococcus faecium [17]) | Structure (SMILES) | Activity (Acinetobacter baumannii [1]) | Activity [2] | Activity (Enterococcus faecium [3]) | Activity (Staphylococcus aureus [4]) | Activity (Staphylococcus aureus [5]) | Activity (Pseudomonas aeruginosa [6]) | Activity (Staphylococcus aureus [7]) | Activity (Acinetobacter baumannii [8]) | Activity (Klebsiella pneumoniae [9]) | Activity (Klebsiella pneumoniae [10]) | Activity (Staphylococcus aureus [11]) | Activity (Acinetobacter baumannii [12]) | Activity (Klebsiella aerogenes [13]) | Activity (Pseudomonas aeruginosa [14]) | Activity (Klebsiella pneumoniae [15]) | IC50 (NHDF) | Activity [18] | IC50 (HaCaT) | Activity (Pseudomonas aeruginosa [19]) | further results
1 | 84.1 µM (≈ 50 µg/mL) | C[C@@H]1CC[C@]2(OC1)O[C@H]1C[C@H]3[C@@H]4CC[C@H]5[C@H](O)[C@H](O)C[C@@H](O[C@@H]6O[C@H](C)[C@H](O)[C@H](O)[C@H]6O)[C@]5(C)[C@H]4CC[C@]3(C)[C@H]1[C@@H]2C | inactive | inactive | inactive | inactive | inactive | inactive | inactive | inactive | inactive | inactive | inactive | inactive | inactive | inactive | inactive | 6.6 µM | inactive | 74.9 µM | inactive | Activity (Enterococcus faecium [16]): inactive; Ratio IC50 [20]: 3 - 11; Activity (Klebsiella pneumoniae [21]): inactive; Activity (Pseudomonas aeruginosa [22]): inactive; Activity (Acinetobacter baumannii [23]): inactive; Activity (Klebsiella aerogenes [24]): inactive; Activity (Enterococcus faecium [25]): inactive
2 | 84.3 µM (≈ 50 µg/mL) | C=C1CC[C@]2(OC1)O[C@H]1C[C@H]3[C@@H]4CC[C@H]5[C@H](O)[C@@H](O)C[C@@H](O[C@@H]6O[C@H](C)[C@H](O)[C@H](O)[C@H]6O)[C@]5(C)[C@H]4CC[C@]3(C)[C@H]1[C@@H]2C | inactive | inactive | inactive | inactive | inactive | inactive | inactive | inactive | inactive | inactive | inactive | inactive | inactive | inactive | inactive | 8.9 µM | inactive | 42.1 µM | inactive | Activity (Enterococcus faecium [16]): inactive; Ratio IC50 [20]: 3 - 11; Activity (Klebsiella pneumoniae [21]): inactive; Activity (Pseudomonas aeruginosa [22]): inactive; Activity (Acinetobacter baumannii [23]): inactive; Activity (Klebsiella aerogenes [24]): inactive; Activity (Enterococcus faecium [25]): inactive
3 |  | COc1cccc2c1C(=O)c1c(O)c3c(c(O)c1C2=O)C[C@@](O)(C(=O)CO)C[C@@H]3O[C@H]1C[C@H](N)[C@H](O)[C@H](C)O1 [DOXORUBICIN] |  |  |  |  |  |  |  |  |  |  |  |  |  |  |  | 0.011 µM |  | 0.01 µM |  | 
4 | 84.1 µM (≈ 50 µg/mL) | C[C@@H]1CC[C@]2(OC1)O[C@H]1C[C@H]3[C@@H]4CC[C@H]5[C@H](O)[C@@H](O)C[C@@H](O[C@@H]6O[C@H](C)[C@H](O)[C@H](O)[C@H]6O)[C@]5(C)[C@H]4CC[C@]3(C)[C@H]1[C@@H]2C | inactive | inactive | inactive | inactive | inactive | inactive | inactive | inactive | inactive | inactive | inactive | inactive | inactive | inactive | inactive | 8.6 µM | inactive | 36.3 µM | inactive | MIC75 (Enterococcus faecium [26]): 84.1 µM (≈ 50 µg/mL); Ratio IC50 [20]: 3 - 11; Activity (Klebsiella pneumoniae [21]): inactive; Activity (Pseudomonas aeruginosa [22]): inactive; Activity (Acinetobacter baumannii [23]): inactive; Activity (Klebsiella aerogenes [24]): inactive; Activity (Enterococcus faecium [25]): inactive
